What was measured:
[1] = Tested for inhibitory concentration required to inhibit 50% of histone deacetylase (HDAC) purified from human T cell leukemia Jurkat cell
HCT-116 = assay: Tested for antiproliferative activity against HCT116 colorectal human carcinoma cell using WST-1 assay; assay type: functional, cell-based
[2] = Tested for inhibitory concentration required to inhibit 50% of histone deacetylase (HDAC) from human T cell leukemia Jurkat cell; assay type: cell-based

**Q.** What does the source list for `O=C(NCC1CCC(C(=O)NO)CC1)c1ccc(-c2ccccc2)cc1` (stereo not drawn)?
**A.** IC50 [1]: 310 nM; IC50 (HCT-116): 4.7 µM

**Q.** What does the source list for `O=C(NO)c1ccc(CNC(=O)c2cccc3ccccc23)cc1`?
**A.** IC50 [1]: 830 nM; IC50 (HCT-116): 9.7 µM

**Q.** Which IC50 (HCT-116) does the source give for `O=C(NCC1CCC(C(=O)NO)CC1)NC12CC3CC(CC(C3)C1)C2` (stereo not drawn) here?
**A.** 20.9 µM

**Q.** For `O=C(NO)c1ccc(CNC(=O)c2ccc3ccccc3c2)cc1`, which IC50 [1] is on record?
**A.** 44 nM

**Q.** And the IC50 (HCT-116)?
**A.** 0.7 µM

**Q.** For `Nc1ccccc1NC(=O)c1ccc(CNC(=O)OCc2cccnc2)cc1` [ENTINOSTAT], which IC50 (HCT-116) is on record?
**A.** 5.4 µM

**Q.** For `O=C(NO)C1CCC(CNS(=O)(=O)c2ccccc2)CC1` (stereo not drawn), which IC50 (HCT-116) is on record?
**A.** 77.9 µM

**Q.** For `O=C(NO)c1ccc(CNC(=O)c2ccc(-c3ccccc3)cc2)cc1`, which IC50 [1] is on record?
**A.** 240 nM

**Q.** What about the IC50 (HCT-116) of the same compound?
**A.** 3.2 µM

**Q.** With `CC(/C=C/C(=O)NO)=C\[C@@H](C)C(=O)c1ccc(N(C)C)cc1` [TRICHOSTATIN] as the compound, how does the IC50 [2] read?
**A.** 3.3 nM

**Q.** Which IC50 (HCT-116) does the source give for `O=C(NCc1ccc(C(=O)NO)cc1)NC12CC3CC(CC(C3)C1)C2` here?
**A.** 112 µM
